Results reported in ChEMBL document CHEMBL1201862, “PubChem BioAssay data set” (2004).
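Each compound was tested at five concentrations against cells in 96-well plates for 48 hours. GI50: concentration for 50% inhibition of growth.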 Calls of active or inactive are those of the source. Rule as the data show it: active = GI50 up to about 1.1 µM and inactive = higher.

How the values were obtained:
Assay in all cases: growth of human tumour cells (NCI), 48 h
BT-549 = system: BT-549
RXF 393 = system: RXF 393
SF-295 = system: SF-295
A498 = system: A498
NCI-H522 = system: NCI-H522
SK-MEL-5 = system: SK-MEL-5
HL-60 = system: HL-60
NCI/ADR-RES = system: NCI/ADR-RES
SK-OV-3 = system: SK-OV-3
OVCAR-4 = system: OVCAR-4
UO-31 = system: UO-31
HCT-116 = system: HCT-116
TK-10 = system: TK-10
A549 = system: A549
MCF7 = system: MCF7
EKVX = system: EKVX
MOLT-4 = system: MOLT-4
NCI-H226 = system: NCI-H226
OVCAR-8 = system: OVCAR-8
IGROV-1 = system: IGROV-1
LOX IMVI = system: LOX IMVI
ACHN = system: ACHN
HOP-62 = system: HOP-62
HT-29 = system: HT-29
PC-3 = system: PC-3
MDA-MB-231 = system: MDA-MB-231
786-0 = system: 786-0
SF-539 = system: SF-539
SN12C = system: SN12C
HCT-15 = system: HCT-15
CCRF-CEM = system: CCRF-CEM
MDA-MB-435 = system: MDA-MB-435
CAKI-1 = system: CAKI-1
Hs-578T = system: Hs-578T
U-251 = system: U-251
SF-268 = system: SF-268
RPMI-8226 = system: RPMI-8226
OVCAR-5 = system: OVCAR-5
M14 = system: M14
T47D = system: T47D
HCC 2998 = system: HCC 2998
K562 = system: K562
HOP-92 = system: HOP-92
NCI-H23 = system: NCI-H23
SW-620 = system: SW-620
SNB-75 = system: SNB-75
KM12 = system: KM12
DU-145 = system: DU-145
MDA-N = system: MDA-N
COLO 205 = system: COLO 205
UACC-62 = system: UACC-62
SK-MEL-2 = system: SK-MEL-2
NCI-H460 = system: NCI-H460
SNB-19 = system: SNB-19
UACC-257 = system: UACC-257
OVCAR-3 = system: OVCAR-3
Malme-3M = system: Malme-3M
SK-MEL-28 = system: SK-MEL-28

SMILES: CCCn1c(=O)c2ccccc2[n+]2c(-c3ccc([N+](=O)[O-])cc3)csc12
- GI50 (BT-549): 33.9 µM (inactive)
- GI50 (RXF 393): 18.1 µM (inactive)
- GI50 (SF-295): 30.8 µM (inactive)
- GI50 (A498): 25.2 µM (inactive)
- GI50 (NCI-H522): 18 µM (inactive)
- GI50 (SK-MEL-5): 18.6 µM (inactive)
- GI50 (HL-60): 24.4 µM (inactive)
- GI50 (NCI/ADR-RES): 7.67 µM (inactive)
- GI50 (SK-OV-3): 36.9 µM (inactive)
- GI50 (OVCAR-4): 17.9 µM (inactive)
- GI50 (UO-31): 18.3 µM (inactive)
- GI50 (HCT-116): 23.8 µM (inactive)
- GI50 (TK-10): > 10 µM (inactive)
- GI50 (A549): 47 µM (inactive)
- GI50 (MCF7): 29.9 µM (inactive)
- GI50 (EKVX): 42.7 µM (inactive)
- GI50 (MOLT-4): 30.6 µM (inactive)
- GI50 (NCI-H226): 29.4 µM (inactive)
- GI50 (OVCAR-8): 13.6 µM (inactive)
- GI50 (IGROV-1): 20.3 µM (inactive)
- GI50 (LOX IMVI): 22.1 µM (inactive)
- GI50 (ACHN): 35.9 µM (inactive)
- GI50 (HOP-62): 18.9 µM (inactive)
- GI50 (HT-29): 25 µM (inactive)
- GI50 (PC-3): 18.1 µM (inactive)
- GI50 (MDA-MB-231): 33.7 µM (inactive)
- GI50 (786-0): 26.2 µM (inactive)
- GI50 (SF-539): 17.2 µM (inactive)
- GI50 (SN12C): 41.3 µM (inactive)
- GI50 (HCT-15): 34.3 µM
- GI50 (CCRF-CEM): 27.2 µM (inactive)
- GI50 (MDA-MB-435): 38.6 µM (inactive)
- GI50 (CAKI-1): 40.9 µM (inactive)
- GI50 (Hs-578T): 23.3 µM (inactive)
- GI50 (U-251): 34.4 µM (inactive)
- GI50 (SF-268): 41.8 µM (inactive)
- GI50 (RPMI-8226): 18 µM (inactive)
- GI50 (OVCAR-5): 17.8 µM (inactive)
- GI50 (M14): 35.6 µM (inactive)
- GI50 (T47D): 30.6 µM (inactive)
- GI50 (HCC 2998): 77.4 µM (inactive)
- GI50 (K562): 20.9 µM (inactive)
- GI50 (HOP-92): 32.4 µM (inactive)
- GI50 (NCI-H23): 31 µM (inactive)
- GI50 (SW-620): 43.9 µM (inactive)
- GI50 (SNB-75): 21.7 µM (inactive)
- GI50 (KM12): 18.8 µM (inactive)
- GI50 (DU-145): 38.9 µM (inactive)
- GI50 (MDA-N): 31.3 µM (inactive)
- GI50 (COLO 205): 39.9 µM (inactive)
- GI50 (UACC-62): 32.7 µM (inactive)
- GI50 (SK-MEL-2): 35.7 µM (inactive)
- GI50 (NCI-H460): 21.9 µM (inactive)
- GI50 (SNB-19): 25.7 µM (inactive)
- GI50 (UACC-257): 27.7 µM (inactive)

SMILES: CC(C)(C)OC(=O)C1=C(C(=O)OC(C)(C)C)SC2(S1)C(C(=O)OC(C)(C)C)=C(C(=O)OC(C)(C)C)Sc1c2ssc1=O
- GI50 (BT-549): 67 µM (inactive)
- GI50 (RXF 393): 45.2 µM (inactive)
- GI50 (SF-295): > 100 µM (inactive)
- GI50 (A498): > 100 µM (inactive)
- GI50 (NCI-H522): 49.3 µM (inactive)
- GI50 (SK-MEL-5): > 100 µM (inactive)
- GI50 (HL-60): 39.4 µM (inactive)
- GI50 (NCI/ADR-RES): > 100 µM (inactive)
- GI50 (OVCAR-3): 48.2 µM (inactive)
- GI50 (SK-OV-3): > 100 µM (inactive)
- GI50 (OVCAR-4): 24.6 µM (inactive)
- GI50 (UO-31): 56.8 µM (inactive)
- GI50 (HCT-116): 47.3 µM (inactive)
- GI50 (TK-10): > 100 µM (inactive)
- GI50 (A549): 72.3 µM (inactive)
- GI50 (MCF7): 49.2 µM (inactive)
- GI50 (EKVX): 79.3 µM (inactive)
- GI50 (MOLT-4): 7.67 µM (inactive)
- GI50 (OVCAR-8): 49.9 µM (inactive)
- GI50 (IGROV-1): 59.4 µM (inactive)
- GI50 (LOX IMVI): 34.7 µM (inactive)
- GI50 (ACHN): 44.1 µM (inactive)
- GI50 (HOP-62): 64.9 µM (inactive)
- GI50 (HT-29): 86.5 µM (inactive)
- GI50 (PC-3): 41 µM (inactive)
- GI50 (MDA-MB-231): 83.8 µM (inactive)
- GI50 (SN12C): 38.3 µM (inactive)
- GI50 (HCT-15): > 100 µM
- GI50 (CCRF-CEM): 18.1 µM (inactive)
- GI50 (MDA-MB-435): 27.5 µM (inactive)
- GI50 (CAKI-1): 83.8 µM (inactive)
- GI50 (Hs-578T): 75.5 µM (inactive)
- GI50 (Malme-3M): > 100 µM (inactive)
- GI50 (U-251): 49.1 µM (inactive)
- GI50 (SF-268): 60.1 µM (inactive)
- GI50 (RPMI-8226): 48.1 µM (inactive)
- GI50 (OVCAR-5): 59.8 µM (inactive)
- GI50 (M14): 95.7 µM (inactive)
- GI50 (T47D): 61 µM (inactive)
- GI50 (HCC 2998): > 100 µM (inactive)
- GI50 (K562): 41.3 µM (inactive)
- GI50 (HOP-92): > 100 µM (inactive)
- GI50 (NCI-H23): 95.1 µM (inactive)
- GI50 (SW-620): 26.4 µM (inactive)
- GI50 (KM12): > 100 µM (inactive)
- GI50 (DU-145): 31 µM (inactive)
- GI50 (MDA-N): 45.2 µM (inactive)
- GI50 (COLO 205): 62.7 µM (inactive)
- GI50 (SK-MEL-28): 73.1 µM (inactive)
- GI50 (UACC-62): 31.3 µM (inactive)
- GI50 (SK-MEL-2): 72.9 µM (inactive)
- GI50 (NCI-H460): 51.2 µM (inactive)
- GI50 (SNB-19): > 100 µM (inactive)
- GI50 (UACC-257): > 100 µM (inactive)
